Data set [1] has as its system RAW264.7. The data set can be described thus: Cytotoxicity against mouse RAW264.7 cells assessed as reduction in cell viability at 20 to 80 uM after 24 hrs by MTT assay. It is filed as cell-based. The following applies: raw264.7, 24 h. On the technique in general: Tetrazolium dyes change colour on reduction, which living cells bring about.
In data set [2] the test system is RAW264.7. The data set can be described thus: Cytotoxicity against mouse RAW264.7 cells assessed as reduction in cell viability at 100 uM after 24 hrs by MTT assay. It is filed as cell-based. The following applies: raw264.7, 24 h.
Data set [3] addresses Toll-like receptor 4 (Homo sapiens, UniProt O00206). The data set can be described thus: Binding affinity to recombinant human TLR4 using phage displayed compound by Phage-ELISA. For orientation: An ELISA detects its analyte on a solid surface through an enzyme-linked reagent.

Activity calls are given as the source filed them. The calls are words filed in the database; no cut-off is given here.

Activity data for four substances are collected here from ChEMBL document CHEMBL4359843, “Linear and Rationally Designed Stapled Peptides Abrogate TLR4 Pathway and Relieve Inflammatory Symptoms in Rheumatoid Arthritis Rat Model” (J Med Chem, 2019).

Chain of Toll-like receptor 4 (O00206 whole entry): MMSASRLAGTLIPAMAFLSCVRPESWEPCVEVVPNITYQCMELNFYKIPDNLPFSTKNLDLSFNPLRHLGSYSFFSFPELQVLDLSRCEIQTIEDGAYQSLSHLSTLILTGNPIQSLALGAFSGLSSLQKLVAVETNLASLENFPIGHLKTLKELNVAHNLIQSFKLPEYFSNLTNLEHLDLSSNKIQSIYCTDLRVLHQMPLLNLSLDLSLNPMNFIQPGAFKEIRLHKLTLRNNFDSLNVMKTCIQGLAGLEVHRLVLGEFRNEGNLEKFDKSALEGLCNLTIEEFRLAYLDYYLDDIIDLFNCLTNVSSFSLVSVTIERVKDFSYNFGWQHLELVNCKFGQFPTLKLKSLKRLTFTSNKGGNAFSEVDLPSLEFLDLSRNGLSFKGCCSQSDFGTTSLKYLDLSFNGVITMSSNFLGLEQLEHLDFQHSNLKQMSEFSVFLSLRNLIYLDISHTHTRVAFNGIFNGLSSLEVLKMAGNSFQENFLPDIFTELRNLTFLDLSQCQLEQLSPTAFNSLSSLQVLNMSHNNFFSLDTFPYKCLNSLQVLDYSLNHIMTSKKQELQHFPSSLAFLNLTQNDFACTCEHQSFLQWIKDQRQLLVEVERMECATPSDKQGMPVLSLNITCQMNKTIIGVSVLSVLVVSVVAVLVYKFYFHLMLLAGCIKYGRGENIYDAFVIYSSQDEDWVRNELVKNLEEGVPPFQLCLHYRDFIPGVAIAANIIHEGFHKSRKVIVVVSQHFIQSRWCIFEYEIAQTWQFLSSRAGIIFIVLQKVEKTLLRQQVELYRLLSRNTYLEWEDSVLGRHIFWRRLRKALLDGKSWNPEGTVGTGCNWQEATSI

For the substance H-FWIFSRYPGASA-OH, the Activity result is reported as “Non-Toxic” in data set [1] and “Toxic” in data set [2]. Moreover, in data set [3], the outcome was Active.

H-FGRYFPCLNWLG-OH: the Activity result in data set [1] was “Non-Toxic”; in data set [2], “Toxic”. In addition, in data set [3], the result was Active.

Regarding H-LWWCFHSLRWLG-OH, the Activity entry in data set [1] is “Non-Toxic”; in data set [2] it was “Toxic”. The result in data set [3] was Active.

In the case of H-HWWHFHSLRWLG-OH, the Activity result in data set [1] is “Non-Toxic”; in data set [2], “Toxic”. Further, in data set [3], the outcome was Active.
